The source of these data is ChEMBL document CHEMBL5108072, “Discovery of Chlorofluoroacetamide-Based Covalent Inhibitors for Severe Acute Respiratory Syndrome Coronavirus 2 3CL Protease” (J Med Chem, 2022).

In general, EC50 refers to the concentration at which the effect is half-maximal. By IC50 is commonly meant the concentration at which inhibition is half-maximal. The term half-life denotes how long it takes for the measured level to halve. Broadly, the bioavailability is the share of a dose that reaches the circulation, judged against a reference dose that is usually intravenous.

The source made the active and inactive calls. No cut-off for these calls is given here. Bounds are passed on as bounds.

The test system of data set [1] is SARS-CoV-2. Put plainly: microbe, parasite or virus in culture. The note with it: Severe acute respiratory syndrome coronavirus 2, alpha QK002, HEK-293T.
The test system of data set [2] is SARS-CoV-2. Put plainly: microbe, parasite or virus in culture. The note with it: Severe acute respiratory syndrome coronavirus 2, Vero C1008.
In data set [3] the test system is SARS-CoV-2. The experiment in a line: microbe, parasite or virus in culture. The note with it: Severe acute respiratory syndrome coronavirus 2, Vero C1008. This is another data set of the same source.
The test system of data set [4] is SARS-CoV-2. Put plainly: microbe, parasite or virus in culture. The note with it: Severe acute respiratory syndrome coronavirus 2, HEK-293T.
Data set [5] deals with SARS-CoV-2. Put plainly: microbe, parasite or virus in culture. As to conditions: Severe acute respiratory syndrome coronavirus 2, delta TY11-927, HEK-293T.
Data set [6] concerns the target Replicase polyprotein 1ab (Severe acute respiratory syndrome coronavirus 2, UniProt P0DTD1). Put plainly: Inhibition of recombinant full length SARS-CoV-2 3CLpro expressed in Escherichia coli using Ac-Abu-Tle-Leu-Gln-MCA as fluorogenic substrate preincubated for 30 mins followed by substrate addition and measured for 6 hrs by multimode plate reader analysis.
Data set [7] can be described thus: Toxicity in fasted ICR/c mouse assessed as hypotension at 100 mg/kg, po. The data set is classed as organism-based. The note with it: in vivo.
Data set [8] in a line: cells. As to conditions: Betacoronavirus 1, HEK-293T.
The subject of data set [9] is SARS-CoV. Put plainly: microbe, parasite or virus in culture. The note with it: Severe acute respiratory syndrome-related coronavirus, HEK-293T.
A short description of data set [10]: Toxicity in fasted ICR/c mouse assessed as debilitation at 100 mg/kg, po. The data set is classed as organism-based. As to conditions: in vivo.
Data set [11] relates to Middle East respiratory syndrome-related coronavirus. Put plainly: microbe, parasite or virus in culture. As to conditions: EMC2012, HEK-293T.
Data set [12] deals with Replicase polyprotein 1ab (Severe acute respiratory syndrome coronavirus 2) (UniProt P0DTD1). Put plainly: Binding affinity to SARS-CoV-2 3CLpro spiked in human A-431 cells assessed as increase in fluorescence intensity at 0.1 uM incubated for 1 hr by gel electrophoresis based fluorescence analysis. The data set is classed as cell-based.
Data set [13] has the same target. The experiment in a line: Irreversible inhibition of recombinant full length SARS-CoV-2 3CLpro expressed in Escherichia coli using Ac-Abu-Tle-Leu-Gln-MCA as fluorogenic substrate assessed as inhibition of substrate hydrolysis at upto 500 nM incubated for 60 mins by multimode plate reader analysis. The note with it: TDE = time-dependent effect.
Data set [14] has as its target Procathepsin L (Homo sapiens, UniProt P07711). Put plainly: Inhibition of C-terminal His-tagged recombinant Human cathepsin L (18 to 333 residues) expressed in FreeStyle 293-F cells using Z-Leu-Arg-MCA peptide as fluorogenic substrate preincubated for 30 mins followed by substrate addition and measured after 1 hr by multimode plate reader analysis. The data set is classed as cell-based.

Data set [15] is described as follows: Plasma protein binding in mouse assessed as unbound fraction at 1 uM incubated for 16 to 20 hrs by LC-MS/MS analysis. The note with it: time 16-20 hrs. The data set is classed as ADME, cell-free.
Data set [16] in a line: Drug concentration in fasted ICR/c mouse lungs at 10 mg/kg, iv measured after 6 hrs by LC-MS/MS analysis. The data set is classed as ADME, organism-based, Lung. As to conditions: in vivo.
Data set [17] in a line: GSH reactivity in potassium phosphate buffer at pH 7.4 assessed as half life at 1 mM. The data set is classed as physicochemical. The note with it: potassium phosphate buffer with GSH.
Data set [18] has as its target Cathepsin B (Homo sapiens, UniProt P07858). Put plainly: Inhibition of C-terminal His-tagged Human cathepsin B expressed in FreeStyle 293-F cells using Z-Leu-Arg-MCA peptide as fluorogenic substrate preincubated for 30 mins followed by substrate addition and measured after 1 hr by multimode plate reader analysis. The data set is classed as cell-based.
Data set [19] can be described thus: Drug concentration in fasted ICR/c mouse lungs at 100 mg/kg, po measured after 6 hrs by LC-MS/MS analysis. The data set is classed as ADME, organism-based, Lung. As to conditions: in vivo.
Data set [20] in a line: Bioavailability in fasted ICR/c mouse at 100 mg/kg, po or 10 mg/kg, iv by LC-MS/MS analysis. Type of data set: ADME, organism-based. As to conditions: in vivo.
Data set [21] deals with Cathepsin S (Homo sapiens, UniProt P25774). The experiment in a line: Inhibition of C-terminal His-tagged recombinant Human cathepsin S (17 to 331 residues) expressed in FreeStyle 293-F cells using Z-Leu-Arg-MCA peptide as fluorogenic substrate preincubated for 30 mins followed by substrate addition and measured after 1 hr by multimode plate reader analysis. Type of data set: cell-based.
Sequence of Cathepsin S (P25774 whole entry, the tested form may be a part): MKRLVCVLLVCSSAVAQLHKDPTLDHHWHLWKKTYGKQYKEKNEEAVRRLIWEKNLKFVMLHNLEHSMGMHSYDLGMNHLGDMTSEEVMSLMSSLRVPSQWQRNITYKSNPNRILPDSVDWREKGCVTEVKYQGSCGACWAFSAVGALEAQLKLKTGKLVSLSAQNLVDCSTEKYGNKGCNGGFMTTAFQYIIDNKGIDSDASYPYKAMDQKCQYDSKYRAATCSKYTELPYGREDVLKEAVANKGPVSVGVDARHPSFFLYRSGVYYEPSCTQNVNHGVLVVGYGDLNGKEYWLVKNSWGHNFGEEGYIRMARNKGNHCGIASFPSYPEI

Sequence of Procathepsin L (P07711 whole entry, the tested form may be a part): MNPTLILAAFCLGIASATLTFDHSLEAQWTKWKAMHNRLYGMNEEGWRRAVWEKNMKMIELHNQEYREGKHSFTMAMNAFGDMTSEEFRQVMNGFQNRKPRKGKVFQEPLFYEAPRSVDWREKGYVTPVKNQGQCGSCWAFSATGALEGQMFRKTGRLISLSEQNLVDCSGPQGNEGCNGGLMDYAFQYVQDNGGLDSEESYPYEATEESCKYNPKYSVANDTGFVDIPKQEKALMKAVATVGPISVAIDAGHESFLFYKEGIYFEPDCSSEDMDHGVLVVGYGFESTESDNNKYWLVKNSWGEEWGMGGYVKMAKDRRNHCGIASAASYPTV

Regarding `CC(C)C[C@H](NC(=O)c1cc2c(F)cccc2[nH]1)C(=O)NN(C[C@H]1CCNC1=O)C(=O)[C@H](F)Cl`, the EC50 in data set [1] is 92.3 nM; in data set [2], over 50000 nM; in data set [3], 423 nM; in [4], 141 nM; in [5], 44.5 nM.
Consider `CC(=O)N(C[C@@H]1CCNC1=O)NC(=O)[C@H](CC(C)C)NC(=O)c1cc2c(F)cccc2[nH]1`, for which the IC50 in data set [6] worked out at 332 nM.
In the case of `COc1cccc2[nH]c(C(=O)N[C@@H](CC(C)C)C(=O)NN(C[C@@H]3CCNC3=O)C(=O)[C@H](F)Cl)cc12`, the Activity result in data set [7] and in data set [10] was “Toxic” throughout. Besides, the EC50 in data set [1] was 16.2 nM; in [2], 20800 nM; in data set [8] it was 3.18 nM; in [9], 64.4 nM; in [11] it was 5.01 nM; in [3], 69.7 nM. Further, the values for the EC50 in [4] and in [5] were 24.4 nM and 8.79 nM, respectively. In addition, in [6], the IC50 is 9.5 nM.
Regarding `O=c1nc(NO)ccn1[C@@H]1O[C@H](CO)[C@@H](O)[C@H]1O` [N-HYDROXYCYTIDINE], the EC50 in data set [1] was found to be 1220 nM; in data set [2], 204 nM; in [8] it was 1190 nM; in data set [9] it was 1560 nM; in data set [11], 1320 nM; in data set [3], 238 nM. For the same compound, the concentration for a half-maximal effect (EC50) in data set [4] worked out at 446 nM; in [5], 351 nM.
With `C#CCOc1cccc2[nH]c(C(=O)N[C@@H](CC(C)C)C(=O)NN(C[C@@H]3CCNC3=O)C(=O)[C@H](F)Cl)cc12`, the outcome in data set [12] was Active.
As to `COc1cccc2[nH]c(C(=O)N[C@@H](CC(C)C)C(=O)N[C@@H](C[C@@H]3CCNC3=O)C(=O)CO)cc12` [PF-00835231], the EC50 in [1] is 1600 nM; in data set [2] it was over 50000 nM; in data set [8], 929 nM; in [9], 3240 nM; in [11] it was 700 nM; in data set [3], 509 nM. Also, the EC50 in [4] came out at 915 nM; in [5] it was 692 nM.
`CC(C)C[C@H](NC(=O)c1cc2c(F)cccc2[nH]1)C(=O)NN(C[C@@H]1CCNC1=O)C(=O)[C@@H](F)Cl`: the inhibition entry in [13] is “Tde”. The figures for the EC50 in data set [1], in data set [4] and in data set [5] were 69 nM, 198 nM and 48.7 nM, respectively.
Regarding `CC(C)C[C@H](NC(=O)c1cc2c(F)cccc2[nH]1)C(=O)NN(C[C@@H]1CCNC1=O)C(=O)[C@H](F)Cl`, the IC50 in [14], in data set [18] and in [21] was over 50000 nM in each case. For the same compound, the inhibition result in data set [13] was “Tde”. In addition, the Fu in data set [15] is 0.15%. Also, the EC50 in [1] is 13.8 nM; in data set [8], 1.67 nM; in data set [9] it was 59.3 nM; in data set [11], 4.72 nM; in data set [3], 59 nM; in [5], 737 nM. For the same compound, the Ct in [16] was determined as 63 nmol/mg; in data set [19] it was 78 nmol/mg. Moreover, the half-life at 1000 µM in data set [17] was 48.2 h. Besides, in [20], the bioavailability was determined as 9%.
Turning to `COc1cccc2[nH]c(C(=O)N[C@@H](CC(C)C)C(=O)NN(C[C@H]3CCNC3=O)C(=O)[C@H](F)Cl)cc12`, the EC50 in data set [1] was 103 nM; in data set [2], over 50000 nM; in [3], 389 nM; in data set [4], 119 nM; in [5], 50 nM.
